Data set [1] has as its system Staphylococcus aureus M133*. The experiment in a line: minimum growth inhibitory concentration, serial dilution method. In kind it is cell-based. To be noted: S. aureus M133, methicillin-resistant (MRSA), sodium salts, 35° C., 18-20 hours; for MIC: Staphylococcus aureus, MRSA, read-out: Minimum growth inhibition concentrations (MIC). On the procedure:
(§1) The determination of MIC. was conducted by inoculating the test microorganism to an incubation medium N for sensitive disc (a product of Nissui Seiyaku Co., Japan), effecting the incubation at 35° C. for 18-20 hours and then estimating the growth of the bacteria. The compounds tested were the sodium salts of Compound A to Compound F indicated below:
(§2) For the comparison purpose, the values similarly determined of MIC. ([…]) of ME1206 compound (sodium salt), Cefdinir (sodium salt) (abbreviated as CFDN) and Cefixime (sodium salt) (abbreviated as CFIX) are also shown in Table 1.

Data set [2] concerns Enterobacter cloacae G-0008. The data set is described as above. In kind it is cell-based. To be noted: 35° C., 18-20 hours; for MIC: G0008, sodium salts, read-out: Minimum growth inhibition concentrations (MIC). As to the method:
as §1, §2

Data set [3] relates to Enterococcus hirae ATCC 8043. The data set is described as above. In kind it is cell-based. As to conditions: sodium salts, 35° C., 18-20 hours; for MIC: Enterococcus hirae, ATCC8043, Enterococcus hirae ATCC 8043, read-out: Minimum growth inhibition concentrations (MIC). On the procedure: as §1, §2
Data set [4] deals with Serratia marcescens No. 1. The description is as above. As to conditions: sodium salts, 35° C., 18-20 hours; for MIC: read-out: Minimum growth inhibition concentrations (MIC). In kind it is cell-based. On the procedure: as §1, §2
Data set [5] has as its system Escherichia coli GN 206. The data set is described as above. In kind it is cell-based. To be noted: sodium salts, 35° C., 18-20 hours; for MIC: Escherichia coli, GN206, Escherichia coli GN 206, read-out: Minimum growth inhibition concentrations (MIC). On the procedure: as §1, §2
For data set [6], the system named is Enterococcus faecalis W-73. Described as above. In kind it is cell-based. As to conditions: sodium salts, 35° C., 18-20 hours; for MIC: Enterococcus faecalis, W73, Enterococcus faecalis W-73, read-out: Minimum growth inhibition concentrations (MIC); for Minimum growth inhibition concentrations (MIC): Enterococcus faecalis W-73. On the procedure:
as §1, §2

The test system of data set [7] is Staphylococcus aureus M126*. The description is as above. In kind it is cell-based. To be noted: S. aureus M126, methicillin-resistant (MRSA), sodium salts, 35° C., 18-20 hours; for MIC: Staphylococcus aureus, read-out: Minimum growth inhibition concentrations (MIC). As to the method:
as §1, §2

Data set [8] deals with Staphylococcus aureus 209P JC-1. Described as above. To be noted: S. aureus 209P JC-1, sodium salts, 35° C., 18-20 hours; for MIC: Staphylococcus aureus, 209P, read-out: Minimum growth inhibition concentrations (MIC). In kind it is cell-based. On the procedure: as §1, §2
For data set [9], the system named is Morganella morganii 1510. The description is as above. In kind it is cell-based. As to conditions: sodium salts, 35° C., 18-20 hours; for MIC: Morganella morganii, 1510, Morganella morganii 1510, read-out: Minimum growth inhibition concentrations (MIC). As to the method:
as §1, §2

The nature of data set [10]: blood concentration pharmacokinetics after subcutaneous injection in mice. As to conditions: for concentration in blood (in words): injected subcutaneously, mice; for half-life / AUC: mouse, serum, sc, 0.5 mg; for AUC: read-out: AUC (area under the plasma concentration-time curve). In kind it is in vivo, mice (Jcl;ICR strain). On the procedure:
The test procedure used was as follows: Thus, to mice of Jcl;ICR strain (4 week-aged, male) each was administered subcutaneously an aqueous solution containing 2.5 mg/ml of a test compound dissolved in distilled water sterilized for injections, in such a way that 0.2 ml of said aqueous solution (corresponding to a dosage of the test compound of 0.5 mg per mouse) was injected to one mouse. At the time-points of 5, 15, 30, 60 and 120 minutes after the administration, the blood samples were collected from the armpit of mouse. The blood samples so collected were each allowed to stand for about 2 hours at room temperature and then centrifuged for 10 minutes in a centrifugal separator to recover the serum. The serum obtained was mixed well with an equal volume of methanol added thereto, and the resulting mixture was centrifuged at 12,000 rpm. for 3 minutes. The supernatant obtained was passed through a filter (Sumplep LCR-13-LH) to obtain the serum sample to be assayed by a high performance liquid chromatography (HPLC). This serum sample was assayed by HPLC to measure quantitatively the concentration of the test compound in the serum.
For each test compound, its half-life value in blood and its AUC (Area under the plasma concentration-time curve),which are the pharmacokinetic parameters, were evaluated according to the method of Gauss-Newton.
For the comparison purpose, the ME1206 compound was also tested in the same manner as above.

Where [11] appears, read: sodium salt, subcutaneous, 0.5 mg per mouse, HPLC of serum.

For the molecule `C=CC1=C(C(=O)O)N2C(=O)[C@@H](NC(=O)/C(=N\O)c3csc(N)n3)[C@H]2SC1` [CFDN, Cefdinir, reference compound], the MIC in [1] was 6.25 µg/mL; in [2], 6.25 µg/mL; in data set [3] it was 50 µg/mL; in data set [4] it was 25 µg/mL; in data set [5], 25 µg/mL; in [6], 25 µg/mL. The results for the MIC in data set [7], in data set [8] and in data set [9] were > 100 µg/mL, 0.2 µg/mL and 25 µg/mL, respectively.
For the molecule `C=CC1=C(C(=O)O)N2C(=O)[C@@H](NC(=O)/C(=N\OCC(=O)O)c3csc(N)n3)[C@H]2SC1` [CFIX, Cefixime, reference compound], the MIC was 100 µg/mL in data set [1]; 0.78 µg/mL in data set [2]; > 100 µg/mL in data set [3]; 0.78 µg/mL in [4]; 50 µg/mL in [5]; > 100 µg/mL in [6]. The results for the MIC in [7], in [8] and in data set [9] were > 100 µg/mL, 12.5 µg/mL and 50 µg/mL, respectively.
`Nc1nc(C(=NO)C(=O)NC2C(=O)N3C(C(=O)O)=C(C=Cc4scnc4Cl)CSC23)cs1` (stereo not drawn) [Compound A, 7-[2-Hydroxyimino-2-(2-aminothiazol-4-yl)acet-amido]-3-[2-(4-chlorothiazol-5-yl)vinyl]-3-cephem-4-carboxylic acid (syn-isomer, cis-isomer)]: in data set [10], the “concentration in blood (in words)” value is listed as “capable of maintaining a high concentration in blood”. Further, in data set [10] (setting [11]), the half-life (in general, the time in which the quantity being followed falls by half) is 1.1 h. Also, the AUC in data set [10] (setting [11]) came out at 211 µg·h/mL. The MIC is 6.25 µg/mL in data set [1]; 1.56 µg/mL in data set [2]; 12.5 µg/mL in data set [3]; 1.56 µg/mL in data set [4]; 1.56 µg/mL in data set [5]; 6.25 µg/mL in data set [6]. Also, the results for the MIC in data set [7], in data set [8] and in [9] were 25 µg/mL, 0.1 µg/mL and 12.5 µg/mL, respectively.
On to `Nc1nc(C(=NO)C(=O)NC2C(=O)N3C(C(=O)O)=C(C=Cc4scnc4C(F)(F)F)CSC23)cs1` (stereo not drawn) [Compound B, 7-[2-Hydroxyimino-2-(2-aminothiazol-4-yl)acet-amido]-3-[2-(4-trifluoromethylthiazol-5-yl)vinyl]-3-cephem-4-carboxylic acid (syn-isomer, cis-isomer)], for which the “concentration in blood (in words)” value in data set [10] is “capable of maintaining a high concentration in blood”. Besides, the half-life in data set [10] (setting [11]) was 0.7 h. Moreover, in data set [10] (setting [11]), the AUC is 149 µg·h/mL. Further, the MIC turned out to be 6.25 µg/mL in data set [1]; 1.56 µg/mL in data set [2]; 6.25 µg/mL in data set [3]; 1.56 µg/mL in data set [4]; 1.56 µg/mL in [5]; 12.5 µg/mL in data set [6]. Moreover, the MIC in data set [7] stood at 25 µg/mL; in data set [8], 0.39 µg/mL; in data set [9], 1.56 µg/mL.
`Cc1ncsc1C=CC1=C(C(=O)O)N2C(=O)C(NC(=O)C(=NO)c3csc(N)n3)C2SC1` (stereo not drawn) [Compound C, 7-[2-Hydroxyimino-2-(2-aminothiazol-4-yl)acet-amido]-3-[2-(4-methylthiazol-5-yl)vinyl]-3-cephem-4-carboxylic acid (syn-isomer, cis-isomer)]: in data set [10], the “concentration in blood (in words)” value was “capable of maintaining a high concentration in blood”. The half-life in data set [10] (setting [11]) was 1.4 h. Besides, the AUC in data set [10] (setting [11]) is 249 µg·h/mL. Moreover, the “AUC (area under the plasma concentration-time curve)” value in [10] (setting [11]) was 315.5 µg·h/mL. The “Half-life value in blood” value in data set [10] (setting [11]) stood at 1.7 h. For the same molecule, the MIC in data set [1] amounted to 6.25 µg/mL; in data set [2] it was 0.78 µg/mL; in [3], 6.25 µg/mL; in data set [4] it was 1.56 µg/mL; in data set [5], 3.13 µg/mL; in data set [6], 12.5 µg/mL. Besides, the MIC in data set [7] amounted to 25 µg/mL; in data set [8], 0.2 µg/mL; in [9], 1.56 µg/mL.
In the case of `Nc1nc(C(=NO)C(=O)NC2C(=O)N3C(C(=O)O)=C(C=Cc4cncs4)CSC23)cs1` (stereo not drawn) [Compound D, 7-[2-Hydroxyimino-2-(2-aminothiazol-4-yl)acet-amido]-3-[2-(thiazol-5-yl)vinyl]-3-cephem-4-carboxylic acid(syn-isomer, cis-isomer)], the “concentration in blood (in words)” value in data set [10] is “capable of maintaining a high concentration in blood”. Further, the MIC is 3.13 µg/mL in data set [1]; 0.78 µg/mL in data set [2]; 12.5 µg/mL in data set [3]; 0.78 µg/mL in data set [4]; 1.56 µg/mL in data set [5]; 25 µg/mL in data set [7]. In addition, the MIC amounted to 0.1 µg/mL in data set [8] and 12.5 µg/mL in data set [9]. The “Minimum growth inhibition concentrations (MIC)” value in [6] came out at 1.56 µg/mL.
Turning to `Nc1nc(C(=NO)C(=O)NC2C(=O)N3C(C(=O)O)=C(C=Cc4cncs4)CSC23)cs1` (stereo not drawn) [Compound E, 7-[2-Hydroxyimino-2-(2-aminothiazol-4-yl)acet-amido]-3-[2-(thiazol-5-yl)vinyl]-3-cephem-4-carboxylic acid (syn-isomer, trans-isomer)], in data set [10], the “concentration in blood (in words)” value is “capable of maintaining a high concentration in blood”. In data set [10] (setting [11]), the half-life was 1.1 h. Also, the AUC in data set [10] (setting [11]) was 253 µg·h/mL. The “Minimum growth inhibition concentrations (MIC)” value in [1] was 6.25 µg/mL; in data set [2] (sodium salts) it was 0.78 µg/mL; in data set [3] (Enterococcus hirae ATCC 8043), 25 µg/mL; in data set [4], 0.78 µg/mL; in [5] (Escherichia coli GN 206), 0.78 µg/mL; in data set [6], 3.13 µg/mL. The “Minimum growth inhibition concentrations (MIC)” value in [7] was determined as 25 µg/mL; in data set [8], 0.20 µg/mL; in data set [9] (Morganella morganii 1510), 6.25 µg/mL.
Turning to `Cc1ncsc1C=CC1=C(C(=O)O)N2C(=O)C(NC(=O)C(=NO)c3nsc(N)n3)C2SC1` (stereo not drawn) [Compound F, 7-[2-Hydroxyimino-2-(5-amino-1,2,4-thiadiazol-3-yl)acetamido]-3-[2-(4-methylthiazol-5-yl)vinyl]-3-cephem-4-carboxylic acid (syn-isomer, cis-isomer)], the “concentration in blood (in words)” value in data set [10] is “capable of maintaining a high concentration in blood”. The half-life in [10] (setting [11]) was 0.9 h. The AUC in data set [10] (setting [11]) was found to be 163 µg·h/mL. The MIC in data set [1] was 3.13 µg/mL; in data set [2], 1.56 µg/mL; in data set [3] it was 25 µg/mL; in [4] it was 3.13 µg/mL; in data set [5] it was 6.25 µg/mL; in [6], 25 µg/mL. In addition, the MIC worked out at 50 µg/mL in data set [7], 0.39 µg/mL in [8] and 25 µg/mL in data set [9].

The values are drawn from US5827845A, “Cephalosporin derivative” (priority 1993, dated 1998).
